Columns and labels:
[1] = target: T1, mutant VR1 receptor Y511C (Homo sapiens, UniProt Q8NER1, Y511C); assay: Calcium imaging with fura-2 in transfected HEK293 cells, low pH (pH 5.1) stimulus; format: cell-based; design: expressed in transfected cells; host or cells: HEK293
Protocol: (§1) The resulting sequence-verified mutant VR1 DNA was inserted into the pcDNA3.1 vector (Invitrogen). Human HEK293 cells were then transfected with the DNA, incubated at 37° C. for 24-48 hrs, and then analyzed for receptor response using calcium imaging techniques.
(§2) Calcium imaging was performed using a Zeiss Axiovert 200M fluorescence microscope equipped with a Photonics Polychrome IV monochrometer fluorescence excitation system as well as a multivalve perfusion system for delivering drugs. Cells were plated on 12 mm glass coverslips and loaded with fura2-AM for 30 min at 37° C. Imaging was performed by alternatively measuring the fluorescence excited at 340 nm and 380 nm at 5 sec time intervals. The ratio between these measured fluorescence values (F340/F380) was then calculated and graphed as a function of time. The 340/380 fluorescence ratio is proportional in a nonlinear way to the intracellular free calcium concentration. Since VR1 is a calcium channel, its opening results in an influx of calcium into the cytoplasm and an increase in the 340/380 fluorescence ratio.
(§3) A normal saline (pH 7.6) wash solution was used as the control solution. […] Compound 18 is named 4-(3-Chloropyridin-2-yl)-N-(4-trifluoromethyl-phenyl)benzamide, and is described and disclosed in commonly owned co-pending International Application No. PCT/US04/033099 filed Oct. […]

[2] = target: human VR1 (Homo sapiens, UniProt Q8NER1); conditions: cited from earlier work
[3] = target: T1, mutant VR1 receptor Y511C; assay: Specific binding of 3H-Resiniferatoxin to membranes of 293 HEK cells; design: expressed in transfected cells; host or cells: HEK293; conditions: 3H-RTX 0.5 nM, absence or presence of unlabeled RTX 200 nM
Protocol: Specific binding of ^3H-Resiniferatoxin (RTX) to membranes of 293 HEK cells expressing human VR 1 and mutant VR 1 receptor Y511C was assessed and the results are presented in FIG. 6. Binding of ^3H-RTX (0.5 nM) to the membranes was conducted in the absence (labeled total binding) or presence (labeled non specific binding) of unlabeled RTX (200 nM) as indicated.

[4] = target: T2, wild-type human VR1 receptor (Homo sapiens, UniProt Q8NER1); assay: Two-electrode voltage clamp in Xenopus oocytes, capsaicin activation; format: cell-based; conditions: 10 μM capsaicin
T2 construct: expressed in transfected cells; host or cells: Xenopus oocytes (RNA injected, pTNT vector)
Protocol: (§4) The ability of capsaicin to activate the mutant VR1 receptors was evaluated in an oocyte system. cDNAs containing the coding sequences of the unmutated human VR1 receptor as well as the mutant receptors Y511A, […], and S512Y were placed into the multiple-cloning site in the pTNT vector (Promega), which contains a T7 promoter sequence, the beta-globin 5′UTR, and a polyadenylation sequence to enhance translation and RNA stability. RNA was synthesized in-vitro using T7 RNA polymerase. The RNA for each channel was injected into Xenopus oocytes (obtained from Nasco, Inc) and incubated at 16° C. for 3-5 days. Standard two-electrode voltage clamp recordings were used to analyze the function of each expressed channel. Solutions were passed over the oocytes using a multiple-valve perfusion system.

[5] = target: T1, mutant VR1 receptor Y511C; assay: as above; format: cell-based; conditions: capsaicin concentrations as high as 100 μM
Protocol: as §4

[6] = target: T3, mutant VR1 receptor Y511A (Homo sapiens, UniProt Q8NER1, Y511A); assay: as above; format: cell-based; conditions: capsaicin concentrations as high as 100 μM
T3 construct: expressed in transfected cells; host or cells: Xenopus oocytes (RNA injected, pTNT vector)
Protocol: as §4

[7] = target: T4, mutant channel Y511A (VR1) (Homo sapiens, UniProt Q8NER1, Y511A); assay: Calcium imaging with fura-2 in transfected HEK293 cells, low pH stimulus; format: cell-based
T4 construct: expressed in transfected cells; host or cells: HEK293
Protocol: as §1, §2, §3

[8] = target: T5, mutant channel S512Y (VR1) (Homo sapiens, UniProt Q8NER1, S512Y); assay: as above; format: cell-based; design: expressed in transfected cells; host or cells: HEK293
Protocol: as §1, §2, §3

[9] = target: T5, mutant channel S512Y (VR1); assay: Two-electrode voltage clamp in Xenopus oocytes, capsaicin activation; format: cell-based; design: expressed in transfected cells; host or cells: Xenopus oocytes (RNA injected, pTNT vector)
Protocol: as §4

[10] = target: rat VR1 (Rattus norvegicus, UniProt O35433); conditions: cited from earlier work
Chain of rat VR1 (O35433 whole entry): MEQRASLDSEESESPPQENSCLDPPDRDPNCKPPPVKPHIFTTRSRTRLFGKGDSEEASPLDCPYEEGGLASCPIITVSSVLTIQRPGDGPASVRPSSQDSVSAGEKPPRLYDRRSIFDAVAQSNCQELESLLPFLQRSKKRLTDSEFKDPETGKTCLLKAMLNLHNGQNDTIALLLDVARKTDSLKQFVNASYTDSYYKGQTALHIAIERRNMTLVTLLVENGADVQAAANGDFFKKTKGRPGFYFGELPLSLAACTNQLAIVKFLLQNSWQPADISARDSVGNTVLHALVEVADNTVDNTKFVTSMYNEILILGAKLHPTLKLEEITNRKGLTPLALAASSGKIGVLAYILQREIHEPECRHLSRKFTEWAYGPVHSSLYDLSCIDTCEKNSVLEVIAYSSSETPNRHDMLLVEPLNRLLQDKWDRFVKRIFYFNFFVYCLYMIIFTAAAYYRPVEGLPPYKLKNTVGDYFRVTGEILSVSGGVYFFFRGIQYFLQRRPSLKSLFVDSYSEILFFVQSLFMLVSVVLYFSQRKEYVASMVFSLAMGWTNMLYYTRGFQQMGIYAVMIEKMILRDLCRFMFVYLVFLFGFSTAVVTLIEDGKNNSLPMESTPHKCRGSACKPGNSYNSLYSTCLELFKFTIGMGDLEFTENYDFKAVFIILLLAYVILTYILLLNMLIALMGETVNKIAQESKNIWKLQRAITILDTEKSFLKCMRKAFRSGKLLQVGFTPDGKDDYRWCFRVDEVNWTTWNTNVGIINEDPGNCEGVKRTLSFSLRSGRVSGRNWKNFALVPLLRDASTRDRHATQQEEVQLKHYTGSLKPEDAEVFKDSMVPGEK

With `O=C(Nc1ccc(C(F)(F)F)cc1)c1ccc(-c2ncccc2Cl)cc1` [Compound 18, 4-(3-Chloropyridin-2-yl)-N-(4-trifluoromethyl-phenyl)benzamide] the IC50 ([1]; mutant VR1 receptor channel, read-out: IC50 for channel blocking activity) was 0.135 µM.

In the case of `COc1cc(CC(=O)OCC2=C[C@H]3[C@@H]4C(C)(C)[C@]4(OC(C)=O)[C@H](OC(=O)Cc4ccccc4)[C@@H](C)[C@]3(O)[C@@H]3C=C(C)C(=O)[C@@]3(O)C2)ccc1O` [PPAHV, phorbol 12-phenylacetate 13 acetate 20-homovanillate], the “agonist activity on human VR1” value ([2]; up to a concentration of 10•M) is given as “essentially inactive”.

In the case of `C=C(C)[C@]12C[C@@H](C)[C@@]34O[C@](Cc5ccccc5)(O[C@@H]1[C@@H]3C=C(COC(=O)Cc1ccc(O)c(OC)c1)C[C@]1(O)C(=O)C(C)=C[C@@H]41)O2` [RTX, resiniferatoxin], the “binding to the mutant VR1 receptor” value [3] is reported as “no significant binding”.

With `COc1cc(CNC(=O)CCCC/C=C/C(C)C)ccc1O` [capsaicin] the “capsaicin response (current)” value [4] was “large response”, the “capsaicin response (current)” value [5] was “no detectable capsaicin response” and the “capsaicin response (current)” value [6] was “no detectable capsaicin response”. The “sensitivity of channel to capsaicin” value [7] was “capsaicin-insensitive”, the “sensitivity of channel to capsaicin” value [8] was “capsaicin-insensitive” and the “response to capsaicin (calcium influx)” value ([1]; 250 nM capsaicin, Y511C in transfected 293 cells) was “no detectable response”. For the same compound, the “capsaicin response (current)” value ([9]; 10 μM capsaicin (data not shown)) was “no detectable response” and the “capsaicin response (current)” value ([9]; 100 μM capsaicin) was “small capsaicin response”.

In the case of `Oc1cc2c(cc1O)CN(C(=S)NCCc1ccc(Cl)cc1)CCC2` [capsazine], the “block of low pH-evoked responses” value [10] is given as “not”, the “inhibition of heat response” value [10] is given as “weak inhibitor” and the “potency of inhibition of capsaicin activation, human VR1 versus rat” value ([2]; greater potency on human VR1 receptors than rat) is given as “approximately 6 fold”. The “block of VR1-mediated heat response” value ([2]; human VR1) was “highly effective” and the “block of low pH-evoked responses” value ([2]; human VR1) was “blocked”.
